What was measured:
HeLa pLuc/705 cells = assay: HeLa pLuc/705 assay (luciferase splice-correction readout of ASO activity with enhancer co-treatment); assay type: cell-based; conditions: for increase in 2′-MOE PS activity: 2′-MOE PS fixed at 2.5 μM; for increase in 2′-OMe PS activity: 2′-OMe PS fixed at 5 μM; for increase in PPMO activity: PPMO fixed at 5 μM; for enhancer concentration range that significantly enhances ASO activity on co-treatment of cells: cell culture co-treatment with ASO or macromolecule; for enhancing performance in screen of Selleck Chemicals FDA-approved drug library: primary screen 10 μM, secondary screen 0.1-20 μM; for enhancement of unmodified PMO activity: varied PMO concentration, enhancer fixed (febuxostat 2.5 μM; lonafarnib 250 nM), manual format (96 wells)
Excerpt: The Hela pLuc/705 assay provides a positive readout of ASO's splice-modifying activity. Because messenger RNA (mRNA) splicing occurs in the cell's nucleus, the assay's output is indicative of the effectiveness of delivery of splice-modifying oligomers into the nucleus, which necessarily implies effective cytosolic delivery. The assay utilizes a genetically modified HeLa cell line that has been stably transfected with a gene containing coding sequence for a reporter enzyme (luciferase) and a mutated intron inserted within the coding sequence. The mutated intron cannot be properly excised resulting in an in-frame stop codon in the luciferase coding sequence, which prevents expression of functional luciferase. Two conditions must be met to produce the functional enzyme. First, an ASO must enter the cell nucleus to block the mutated splice site, thus restoring normal splicing and read through of the reporter message. The result is mRNA encoding functional reporter protein. Second, but equally important, the cells must be viable to carry out RNA processing and translation so that reporter protein activity is produced.
Correction through successful nuclear delivery of a splice-modifying ASO restores luciferase expression, which is then quantified by measurement of cell lysate luminescence with addition of luciferin substrate. This assay is a standard measure of intracellular ASO delivery within the field.
The HeLa pLuc/705 assay was miniaturized in order to allow it to be performed in […] cell culture plates, enabling the assay to be adapted to the high-throughput screening setting. The aim was to screen small molecules, with an emphasis on FDA-approved drugs, for ability to enhance ASO splice-modifying activity, which would be indicated by an increase in luminescence relative to cells treated with the ASO alone. In order to validate the approach, a positive control molecule was utilized which was already known to increase ASO activity when used alongside the ASO. Initially, a peptide intended for use in cell culture was used. Subsequently, febuxostat was used as a positive control.
The first screened compounds were the compounds in the Selleck Chemicals FDA-approved drug library for enhancing activity. This library contains 1430 compounds. Library compounds were dispensed to 10 μM in the plate wells. […] These sixteen compounds were evaluated for enhancing performance over the concentration range 0.1-20 μM. This enabled validation of the primary screening results, as well as to evaluate relative performance of hits through observation of concentration-dependent activity. Hits were evaluated based on relative enhancing performance, and they were also qualitatively evaluated for suitability for future therapeutic use, considering the identity, indication and approval status of the compound.
HeLa pLuc/705 cells were seeded into 384-well plates ([…] well volume) and incubated for 24 hours. At 24 hours, DMSO solutions of OAEs were added to subconfluent cells using an HP D300 Digital Dispenser, followed by addition of a testing ASO or DMSO. Cells were incubated for 24 hours. At 24 hours treatment time, growth medium was removed from the cells and […] of a lysis buffer/luciferin solution was added to each well. Luminescence was measured using a BioTek plate reader 5 minutes following addition of the lysis buffer/luciferin solution. Background luminescence values (generated using OAE only/DMSO-matched controls) were subtracted from experimental values. These methods apply to the commonly employed format for the assay using the HP D300 Digital Dispenser, with slight variations used for the high-throughput and manual formats.

[1] = mice, intraperitoneal administration at 10 mg/kg; cited from earlier work
[2] = degrades to tizoxanide; cited from earlier work
[3] = in vivo, po; cited from earlier work
[4] = varied ASO concentration, enhancer fixed (resveratrol 10 μM)

| Structure (SMILES) | increase in 2′-OMe PS activity (HeLa pLuc/705 cells; enhancer at 10 μM) [fold] | enhancement of PPMO activity in screen of NIH Clinical Collection (HeLa pLuc/705 cells; PPMO) | increase in PPMO activity (HeLa pLuc/705 cells; enhancer at 10 μM) [fold] | enhancer concentration range that significantly enhances ASO activity on co-treatment of cells (HeLa pLuc/705 cells) [µM] | enhancing performance in screen of Selleck Chemicals FDA-approved drug library (HeLa pLuc/705 cells; PPMO) | enhancement of unmodified PMO activity (HeLa pLuc/705 cells) | other results |
| --- | --- | --- | --- | --- | --- | --- | --- |
| Nc1nc2ccc(Cl)cc2c2nc(-c3ccco3)nn12 [CGS-15943] | 3.2 | significant enhancement | 4 | 0.25 to 20 | – | – | increase in 2′-MOE PS activity (HeLa pLuc/705 cells; enhancer at 10 μM): 2.6 fold; adverse effects [1]: no reported adverse effects |
| Cc1nc(-c2ccc(OCC(C)C)c(C#N)c2)sc1C(=O)O [febuxostat] | 6.4 | – | 7.9 | 0.25 to 20 | strong performers | found to enhance the activity | increase in 2′-MOE PS activity (HeLa pLuc/705 cells; enhancer at 5 μM): 3 fold; result in screen of MicroSource Discovery Spectrum library (HeLa pLuc/705 cells; PPMO): strong hit |
| NC(=O)N1CCC(CC(=O)N2CCC([C@H]3c4ncc(Br)cc4CCc4cc(Cl)cc(Br)c43)CC2)CC1 [lonafarnib] | – | – | – | 0.1 to 20 | strong performers | found to enhance the activity | increase in 2′-MOE PS activity (HeLa pLuc/705 cells; enhancer at 250 nM): 2.1 fold; increase in 2′-OMe PS activity (HeLa pLuc/705 cells; enhancer at 250 nM): 3 fold; increase in PPMO activity (HeLa pLuc/705 cells; enhancer at 250 nM): 2.6 fold |
| CC(=O)Oc1ccccc1C(=O)Nc1ncc([N+](=O)[O-])s1 [nitazoxanide] | – | significant enhancement | – | 5 to 20 | – | – | degradation in human plasma [2]: degrade very rapidly |
| Oc1ccc(/C=C/c2cc(O)cc(O)c2)cc1 [resveratrol] | 1.5 | – | 2.1 | 1 to 20 | found to be an OAE | – | maximum plasma concentration [3]: 2.4 µM; enhancement of 2′-MOE PS activity (HeLa pLuc/705 cells; fixed ASO concentration, varied enhancer concentration): did not show enhancement; enhancement of 2′-MOE PS ASO activity (HeLa pLuc/705 cells; [4]): did show enhancement; enhancement of 2′-OMe PS ASO activity (HeLa pLuc/705 cells; [4]): failed to enhance activity |
